{"source": "patent US8871492B2", "about": "“Anti-dementia substance from Hericium erinaceum and method of extraction” (priority 2008, dated 2014)", "test_system": "Aβ1-40-induced AD rats", "experiment": "Morris Water Maze Test on Aβ1-40-induced AD rats", "assay_type": "in vivo, Sprague-Dawley male rats", "conditions": "for Arrival Time of Platform: Donepezil 1 mg/kg by stomach tube once per day", "protocol": "The control group was injected with 5 μL of saline. […] From the fourth week after the administration, learning and memory-related behavior was assessed using the Morris Water Maze Test on ten rats arbitrarily-chosen from each group once a day for one week (from day 1 to day 6 the time to arrive at the platform is measured, and on day 7 the platform is removed and the frequency to cross (pass by) the platform location is counted). After completing the behavioral test, the rats were sacrificed. The cerebral tissues separated from half of the rats of each group were used for pathological examination, and the olfactory bulb, hippocampus, locus ceruleus, and cerebral cortex from another half were used to determine the NGF content with enzyme-linked immunosorbent assay (ELISA).", "note": "Where “and” joins values, the source holds several entries; their conditions need not be identical. Identical values can stand only once."}
{"smiles": "COc1cc2c(cc1OC)C(=O)C(CC1CCN(Cc3ccccc3)CC1)C2", "note": "(centres unmarked) [Donepezil]", "values": [{"measurement": "Arrival Time of Platform", "setting": "Day 1, n = 10", "result": "77.03 ± 29.92", "unit": "s"}, {"measurement": "Arrival Time of Platform", "setting": "Day 2, n = 10", "result": "39.10 ± 26.36", "unit": "s"}, {"measurement": "Arrival Time of Platform", "setting": "Day 3, n = 10", "result": "34.98 ± 23.42", "unit": "s"}, {"measurement": "Arrival Time of Platform", "setting": "Day 4, n = 10", "result": "31.10 ± 23.26", "unit": "s"}, {"measurement": "Arrival Time of Platform", "setting": "Day 5, n = 10", "result": "30.00 ± 21.11", "unit": "s"}, {"measurement": "Arrival Time of Platform", "setting": "Day 6, n = 10", "result": "28.43 ± 23.45", "unit": "s"}, {"measurement": "Frequencies of crossing platform location within two minutes", "setting": "day 7, individual rats No. 1-10, Donepezil 1 mg/kg", "result": "14 and 11 and 22 and 19 and 10 (2×) and 13 and 8 and 6 and 7"}, {"measurement": "Frequencies of crossing platform location within two minutes, Mean ± SD", "setting": "day 7, n = 10, Donepezil 1 mg/kg", "result": "12.00 ± 5.16"}]}
